Measurements as given in PMC8294567, “Associations between plasma nucleoside reverse transcriptase inhibitors concentrations and cognitive function in people with HIV” (PLoS ONE, 2021).
Counter-ions that a name gives are not always drawn.

Key:
[1] = Plasma NRTI concentrations and population PK parameters (POPPY study)
Experimental: (§1) NRTI concentrations were measured by a validated method on ultra-performance liquid chromatography (ACQUITY, Waters) in plasma samples collected at study baseline. Briefly, 200 μL of plasma was subjected to solid phase extraction (MCX cartridge, Waters) and the elutants were dried under nitrogen stream before being re-constituted in 50 μL of water. The NRTI drugs were separated using a C18 BEH column (1.7 μm, 2.1 mm x 100 mm, Waters). For each of the four NRTIs, population PK models were determined using nonlinear mixed effects (NONMEM v.7.3) using the $PRIOR subroutine to stabilise the models and aid partition of inter-individual and residual variabilities. The impact of covariates on antiretroviral apparent oral clearance was evaluated. […] Model fit was assessed by statistical and graphical methods.

[2] = human, in vivo
Experimental: as §1, with “methods. A decrease in the minimal objective function value (-2*log likelihood) of at least 3.84 units (corresponding to a p-value<0.05) was required to accept a model with an extra parameter. Once significant covariates were incorporated, a backwards elimination process was performed and biologically plausible covariates generating an increase in the objective function value of at least 10.83 (i.e. p<0.001) units were retained.” for “methods.”
Continuous variables, including PK parameters and cognitive z-scores, were summarized using the median and the interquartile range (IQR); categorical variables were described using frequencies and percentages. Associations between NRTI PK parameters and cognitive z-scores were assessed using a series of rank regression models, one for each combination of cognitive domain/global score, NRTI and PK parameter (7x4x3 models). In each model, the cognitive score was considered as the dependent variable and the NRTI PK parameter as an independent variable in addition to the following confounders, selected a priori: age, gender, ethnicity, education, recreational drug use, alcohol consumption, glomerular filtration rate (estimated using the Chronic Kidney Disease Epidemiology Collaboration equation [15]), depressive symptoms (assessed via the Patient Health Questionnaire-9 [16]) use of ritonavir/cobicistat boosted protease inhibitor and use of efavirenz. […] Multivariable analyses were conducted as follows, in order to investigate associations of each PK parameter for one NRTI, independently of the concentration of the other NRTI in the regimen. […] All analyses were performed using the statistical software SAS v9.4 with p-values <0.05 considered as statistically significant.

cognitive function = details: cited from earlier work
[3] = parameters: method as in PMID 16390539; details: cited from earlier work
[4] = PWH on cART, median (IQR), from population PK model

Nc1ccn([C@@H]2CS[C@H](CO)O2)c(=O)n1 [3TC, lamivudine]
Ctrough [1, 4]: 3TC: 12.4 (3.0, 126.7) μg/l | AUC(0-t) ([1]; human, po): 9900 ng·h/mL | Cmax ([1]; human, po): 2400 ng/mL | Eta^2, Age vs Ctrough [2]: 0.101 | Eta^2, Alcohol consumption vs Ctrough [2]: 0.005 | Eta^2, BMI vs Ctrough [2]: 0.002 | Eta^2, Education vs Ctrough [2]: 0.084 | Eta^2, Ethnicity vs Ctrough [2]: 0.021 | Eta^2, Gender vs Ctrough [2]: 0.002 | Eta^2, PHQ-9 score vs Ctrough [2]: 0.015 | Eta^2, Recreational drug use vs Ctrough [2]: 0.014 | Eta^2, Use of Efavirenz vs Ctrough [2]: 0.041 | Eta^2, Use of boosted PI vs Ctrough [2]: 0.039 | Eta^2, eGFR vs Ctrough [2]: 0.230

Nc1nc(NC2CC2)c2ncn([C@H]3C=C[C@@H](CO)C3)c2n1 [ABC, abacavir]
effect on cognitive performance (cognitive function; cohort study): beneficial effect | cognitive function after ABC initiation (cognitive function; randomized controlled trial, PWH with HIV-associated dementia): no improvement of cognitive function | Ctrough [1, 4]: ABC: 2.6 (1.4, 4.6) μg/l | AUC(0-t) ([1]; human, po): 12700 ng·h/mL | Cmax ([1]; human, po): 4200 ng/mL | Eta^2, Age vs AUC0-24 [2]: 0.005 | Eta^2, Age vs Cmax [2]: 0.017 | Eta^2, Age vs Ctrough [2]: 0.069 | Eta^2, Alcohol consumption vs AUC0-24 [2]: 0.002 | Eta^2, Alcohol consumption vs Cmax [2]: 0.000 | Eta^2, Alcohol consumption vs Ctrough [2]: 0.008 | Eta^2, BMI vs AUC0-24 [2]: 0.010 | Eta^2, BMI vs Cmax [2]: 0.014 | Eta^2, BMI vs Ctrough [2]: 0.000 | Eta^2, Education vs AUC0-24 [2]: 0.071 | Eta^2, Education vs Cmax [2]: 0.033 | Eta^2, Education vs Ctrough [2]: 0.114 | Eta^2, Ethnicity vs AUC0-24 [2]: 0.011 | Eta^2, Ethnicity vs Cmax [2]: 0.025 | Eta^2, Ethnicity vs Ctrough [2]: 0.002 | Eta^2, Gender vs AUC0-24 [2]: 0.036 | Eta^2, Gender vs Cmax [2]: 0.034 | Eta^2, Gender vs Ctrough [2]: 0.001 | Eta^2, PHQ-9 score vs AUC0-24 [2]: 0.000 | Eta^2, PHQ-9 score vs Cmax [2]: 0.001 | Eta^2, PHQ-9 score vs Ctrough [2]: 0.000 | Eta^2, Recreational drug use vs AUC0-24 [2]: 0.027 | Eta^2, Recreational drug use vs Cmax [2]: 0.009 | Eta^2, Recreational drug use vs Ctrough [2]: 0.010 | Eta^2, Use of Efavirenz vs AUC0-24 [2]: 0.016 | Eta^2, Use of Efavirenz vs Cmax [2]: 0.000 | Eta^2, Use of Efavirenz vs Ctrough [2]: 0.040 | Eta^2, Use of boosted PI vs AUC0-24 [2]: 0.053 | Eta^2, Use of boosted PI vs Cmax [2]: 0.008 | Eta^2, Use of boosted PI vs Ctrough [2]: 0.059 | Eta^2, eGFR vs AUC0-24 [2]: 0.039 | Eta^2, eGFR vs Cmax [2]: 0.000 | Eta^2, eGFR vs Ctrough [2]: 0.089

Nc1nc(=O)n([C@@H]2CS[C@H](CO)O2)cc1F [FTC, emtricitabine]
Ctrough [1, 4]: FTC: 75.0 (59.0, 99.0) μg/l | AUC(0-t) ([1]; human, po): 10400 ng·h/mL | Cmax ([1]; human, po): 1100 ng/mL | Eta^2, Age vs AUC0-24 [2]: 0.157 | Eta^2, Age vs Cmax [2]: 0.189 | Eta^2, Age vs Ctrough [2]: 0.099 | Eta^2, Alcohol consumption vs AUC0-24 [2]: 0.000 | Eta^2, Alcohol consumption vs Cmax [2]: 0.000 | Eta^2, Alcohol consumption vs Ctrough [2]: 0.001 | Eta^2, BMI vs AUC0-24 [2]: 0.000 | Eta^2, BMI vs Cmax [2]: 0.000 | Eta^2, BMI vs Ctrough [2]: 0.000 | Eta^2, Education vs AUC0-24 [2]: 0.013 | Eta^2, Education vs Cmax [2]: 0.011 | Eta^2, Education vs Ctrough [2]: 0.013 | Eta^2, Ethnicity vs AUC0-24 [2]: 0.010 | Eta^2, Ethnicity vs Cmax [2]: 0.014 | Eta^2, Ethnicity vs Ctrough [2]: 0.005 | Eta^2, Gender vs AUC0-24 [2]: 0.000 | Eta^2, Gender vs Cmax [2]: 0.000 | Eta^2, Gender vs Ctrough [2]: 0.000 | Eta^2, PHQ-9 score vs AUC0-24 [2]: 0.004 | Eta^2, PHQ-9 score vs Cmax [2]: 0.002 | Eta^2, PHQ-9 score vs Ctrough [2]: 0.004 | Eta^2, Recreational drug use vs AUC0-24 [2]: 0.030 | Eta^2, Recreational drug use vs Cmax [2]: 0.033 | Eta^2, Recreational drug use vs Ctrough [2]: 0.025 | Eta^2, Use of Efavirenz vs AUC0-24 [2]: 0.008 | Eta^2, Use of Efavirenz vs Cmax [2]: 0.008 | Eta^2, Use of Efavirenz vs Ctrough [2]: 0.005 | Eta^2, Use of boosted PI vs AUC0-24 [2]: 0.008 | Eta^2, Use of boosted PI vs Cmax [2]: 0.008 | Eta^2, Use of boosted PI vs Ctrough [2]: 0.005 | Eta^2, eGFR vs Cmax [2]: 0.172 | Eta^2, eGFR vs Ctrough [2]: 0.083

CC(C)OC(=O)[C@H](C)N[P@](=O)(CO[C@H](C)Cn1cnc2c(N)ncnc21)Oc1ccccc1 [TAF, tenofovir alafenamide]
cognitive performances on switching from TDF to TAF (cognitive function; PWH switching from TDF to TAF): no changes in cognitive performances

CC(C)OC(=O)OCOP(=O)(CO[C@H](C)Cn1cnc2c(N)ncnc21)OCOC(=O)OC(C)C [TDF, tenofovir disoproxil fumarate]
CNS penetration [3]: low CNS penetration | Eta^2, Age vs AUC0-24 [2]: 0.070 | Eta^2, Age vs Cmax [2]: 0.028 | Eta^2, Age vs Ctrough [2]: 0.075 | Eta^2, Alcohol consumption vs AUC0-24 [2]: 0.002 | Eta^2, Alcohol consumption vs Cmax [2]: 0.005 | Eta^2, Alcohol consumption vs Ctrough [2]: 0.001 | Eta^2, BMI vs AUC0-24 [2]: 0.095 | Eta^2, BMI vs Cmax [2]: 0.271 | Eta^2, BMI vs Ctrough [2]: 0.013 | Eta^2, Education vs AUC0-24 [2]: 0.016 | Eta^2, Education vs Cmax [2]: 0.020 | Eta^2, Education vs Ctrough [2]: 0.011 | Eta^2, Ethnicity vs AUC0-24 [2]: 0.007 | Eta^2, Ethnicity vs Cmax [2]: 0.000 | Eta^2, Ethnicity vs Ctrough [2]: 0.011 | Eta^2, Gender vs AUC0-24 [2]: 0.009 | Eta^2, Gender vs Cmax [2]: 0.033 | Eta^2, Gender vs Ctrough [2]: 0.001 | Eta^2, PHQ-9 score vs AUC0-24 [2]: 0.001 | Eta^2, PHQ-9 score vs Cmax [2]: 0.001 | Eta^2, PHQ-9 score vs Ctrough [2]: 0.002 | Eta^2, Recreational drug use vs AUC0-24 [2]: 0.007 | Eta^2, Recreational drug use vs Cmax [2]: 0.000 | Eta^2, Recreational drug use vs Ctrough [2]: 0.012 | Eta^2, Use of Efavirenz vs AUC0-24 [2]: 0.003 | Eta^2, Use of Efavirenz vs Cmax [2]: 0.000 | Eta^2, Use of Efavirenz vs Ctrough [2]: 0.005 | Eta^2, Use of boosted PI vs AUC0-24 [2]: 0.004 | Eta^2, Use of boosted PI vs Cmax [2]: 0.002 | Eta^2, Use of boosted PI vs Ctrough [2]: 0.004 | Eta^2, eGFR vs AUC0-24 [2]: 0.124 | Eta^2, eGFR vs Cmax [2]: 0.042 | Eta^2, eGFR vs Ctrough [2]: 0.135

C[C@H](Cn1cnc2c(N)ncnc21)OCP(=O)(O)O [TFV, tenofovir]
Cmax [1, 4]: TFV: 0.3 (0.2, 0.3) mg/l | Ctrough [1, 4]: TFV: 53.0 (44.0, 67.0) μg/l | AUC(0-t) ([1]; human, po): 2700 ng·h/mL
